Our source for the residual activity, inhibition and IC50 values is ChEMBL document CHEMBL4507279, “Data for DCP probe BI-9627” (2021).

Calls of active or inactive are those of the source. The calls are words filed in the database; no cut-off is given here.

In assay [1] the target is Tyrosine-protein kinase receptor UFO (Homo sapiens) (UniProt P30530). As to conditions: Compound concentration 1000.0 nM.
For assay [2], the target named is Dual specificity protein kinase CLK3 (Homo sapiens) (UniProt P49761). Particulars: Compound concentration 1000.0 nM.
Assay [3] addresses Macrophage colony-stimulating factor 1 receptor (Homo sapiens) (UniProt P07333). As to conditions: Compound concentration 1000.0 nM.
The target of assay [4] is Casein kinase I isoform gamma-3 (Homo sapiens) (UniProt Q9Y6M4). Particulars: Compound concentration 1000.0 nM.
The subject of assay [5] is Epidermal growth factor receptor (Homo sapiens), P00533 [L858R,T790M]. Particulars: Compound concentration 1000.0 nM.
In assay [6] the test system is Epidermal growth factor receptor (Homo sapiens), P00533 [T790M]. Particulars: Compound concentration 1000.0 nM.
Assay [7] has as its target Inhibitor of nuclear factor kappa-B kinase subunit alpha (Homo sapiens) (UniProt O15111). As to conditions: Compound concentration 1000.0 nM.
Assay [8] concerns the target Interleukin-1 receptor-associated kinase 1 (Homo sapiens) (UniProt P51617). Particulars: Compound concentration 1000.0 nM.
Assay [9] has as its system Hepatocyte growth factor receptor (Homo sapiens), P08581 [M1250T]. As to conditions: Compound concentration 1000.0 nM.
Assay [10] addresses MAP kinase-interacting serine/threonine-protein kinase 2 (Homo sapiens) (UniProt Q9HBH9). As to conditions: Compound concentration 1000.0 nM.
The target in assay [11] is Serine/threonine-protein kinase MRCK beta (Homo sapiens) (UniProt Q9Y5S2). As to conditions: Compound concentration 1000.0 nM.
Assay [12] addresses Platelet-derived growth factor receptor beta (Homo sapiens) (UniProt P09619). Particulars: Compound concentration 1000.0 nM.
The target in assay [13] is 5-hydroxytryptamine receptor 6 (Homo sapiens) (UniProt P50406). As to conditions: Compound concentration 10.0 uM.
Assay [14] concerns the target T1, 5-hydroxytryptamine receptor 3A (Homo sapiens) (UniProt P46098).
T1 sequence (whole entry): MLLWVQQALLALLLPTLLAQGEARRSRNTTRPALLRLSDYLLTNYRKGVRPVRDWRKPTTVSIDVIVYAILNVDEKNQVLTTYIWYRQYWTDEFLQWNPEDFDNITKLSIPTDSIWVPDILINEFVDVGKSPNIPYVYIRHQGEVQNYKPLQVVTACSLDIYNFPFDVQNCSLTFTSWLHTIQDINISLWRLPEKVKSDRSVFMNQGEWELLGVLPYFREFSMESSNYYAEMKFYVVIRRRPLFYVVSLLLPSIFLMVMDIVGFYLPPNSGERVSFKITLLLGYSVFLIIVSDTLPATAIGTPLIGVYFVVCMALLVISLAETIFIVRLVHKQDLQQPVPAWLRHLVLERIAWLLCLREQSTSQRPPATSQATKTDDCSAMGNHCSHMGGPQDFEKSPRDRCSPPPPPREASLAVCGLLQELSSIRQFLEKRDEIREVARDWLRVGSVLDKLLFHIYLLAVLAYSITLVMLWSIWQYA
Briefly: 5HT3/HU Eurofins-Panlabs selectivity data (BI). As to conditions: Compound concentration 10.0 uM.

In assay [15] the target is T2, D(4) dopamine receptor (Homo sapiens) (UniProt P21917).
T2 sequence (whole entry): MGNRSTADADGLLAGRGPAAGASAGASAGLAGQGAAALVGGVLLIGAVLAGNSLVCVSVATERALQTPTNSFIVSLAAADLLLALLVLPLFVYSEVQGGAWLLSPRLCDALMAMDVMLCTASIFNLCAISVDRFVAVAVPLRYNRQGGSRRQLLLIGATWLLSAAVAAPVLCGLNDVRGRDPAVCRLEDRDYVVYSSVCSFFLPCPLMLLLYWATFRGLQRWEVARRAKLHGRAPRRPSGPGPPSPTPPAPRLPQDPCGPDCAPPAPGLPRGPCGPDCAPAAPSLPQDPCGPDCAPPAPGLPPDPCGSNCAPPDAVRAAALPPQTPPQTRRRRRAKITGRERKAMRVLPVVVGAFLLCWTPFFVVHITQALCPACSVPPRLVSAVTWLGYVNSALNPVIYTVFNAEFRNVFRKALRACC
Briefly: D4.2/H Eurofins-Panlabs selectivity data (BI). Particulars: Compound concentration 10.0 uM.

Assay [16] addresses Prostaglandin E2 receptor EP4 subtype (Homo sapiens) (UniProt P35408). Briefly: EP4/H Eurofins-Panlabs selectivity data (BI). As to conditions: Compound concentration 10.0 uM.
Assay [17] has as its target Kappa-type opioid receptor (Homo sapiens) (UniProt P41145). Briefly: KAPPA/HU Eurofins-Panlabs selectivity data (BI). As to conditions: Compound concentration 10.0 uM.
The target in assay [18] is T3, Muscarinic acetylcholine receptor M2 (Homo sapiens) (UniProt P08172).
T3 sequence (whole entry): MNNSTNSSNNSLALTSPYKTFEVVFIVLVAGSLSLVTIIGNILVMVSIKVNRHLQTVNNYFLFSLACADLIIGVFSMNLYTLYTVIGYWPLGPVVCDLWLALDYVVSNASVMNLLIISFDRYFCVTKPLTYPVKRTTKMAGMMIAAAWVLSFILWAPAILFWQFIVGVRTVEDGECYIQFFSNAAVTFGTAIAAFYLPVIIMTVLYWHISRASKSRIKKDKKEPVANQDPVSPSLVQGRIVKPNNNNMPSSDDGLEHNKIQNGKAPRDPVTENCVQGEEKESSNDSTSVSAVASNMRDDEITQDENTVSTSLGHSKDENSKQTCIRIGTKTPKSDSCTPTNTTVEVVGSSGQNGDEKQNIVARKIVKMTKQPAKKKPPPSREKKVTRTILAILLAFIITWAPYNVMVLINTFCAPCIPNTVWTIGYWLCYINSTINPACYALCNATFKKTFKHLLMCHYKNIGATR
The experiment in a line: M2/HU Eurofins-Panlabs selectivity data (BI).

Assay [19] addresses Nicotinic acetylcholine receptor alpha-1/beta-1 (Homo sapiens) (UniProt P02708+P11230). The experiment in a line: NACH_BS_N/H Eurofins-Panlabs selectivity data (BI). The assay is classed as protein-complex assay. Particulars: Compound concentration 10.0 uM.
For assay [20], the target named is 3',5'-cyclic-AMP phosphodiesterase 4A (Rattus norvegicus) (UniProt P54748). The experiment in a line: ROLIPRAM/R Eurofins-Panlabs selectivity data (BI). Particulars: Compound concentration 10.0 uM.
Assay [21] deals with ATP-sensitive inward rectifier potassium channel 1 isoform X1 (Mesocricetus auratus) (UniProt A0A1U8CU73). As to conditions: Compound concentration 10.0 uM.
Assay [22] deals with Glutamate receptor ionotropic, kainate 1 (Rattus norvegicus) (UniProt P22756). Particulars: Compound concentration 10.0 uM.
Assay [23] in a line: Rat platelet swelling inhibition (rPSA) assay.

Sequence of Tyrosine-protein kinase receptor UFO (Homo sapiens) (P30530 whole entry): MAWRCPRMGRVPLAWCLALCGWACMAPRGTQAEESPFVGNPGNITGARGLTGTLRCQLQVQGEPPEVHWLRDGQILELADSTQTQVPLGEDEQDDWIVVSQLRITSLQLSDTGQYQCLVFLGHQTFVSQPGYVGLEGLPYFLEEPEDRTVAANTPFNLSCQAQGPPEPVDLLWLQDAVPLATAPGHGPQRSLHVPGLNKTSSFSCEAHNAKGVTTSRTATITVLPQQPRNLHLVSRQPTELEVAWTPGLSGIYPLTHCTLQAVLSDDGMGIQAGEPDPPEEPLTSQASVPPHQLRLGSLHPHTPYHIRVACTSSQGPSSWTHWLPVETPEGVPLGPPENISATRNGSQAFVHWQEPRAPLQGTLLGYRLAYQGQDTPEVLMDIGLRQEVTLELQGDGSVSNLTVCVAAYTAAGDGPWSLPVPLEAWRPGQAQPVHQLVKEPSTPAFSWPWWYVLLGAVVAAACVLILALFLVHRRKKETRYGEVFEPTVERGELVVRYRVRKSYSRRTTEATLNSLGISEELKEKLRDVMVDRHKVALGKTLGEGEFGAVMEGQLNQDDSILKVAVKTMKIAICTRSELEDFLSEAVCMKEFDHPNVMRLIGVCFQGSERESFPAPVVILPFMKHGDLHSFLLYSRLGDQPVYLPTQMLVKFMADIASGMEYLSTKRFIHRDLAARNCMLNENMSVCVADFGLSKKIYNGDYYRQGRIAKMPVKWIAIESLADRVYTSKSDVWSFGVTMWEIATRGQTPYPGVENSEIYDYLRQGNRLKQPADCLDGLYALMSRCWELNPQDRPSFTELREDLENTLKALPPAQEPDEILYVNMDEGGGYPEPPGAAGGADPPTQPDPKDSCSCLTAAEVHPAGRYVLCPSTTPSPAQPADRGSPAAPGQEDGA
Sequence of Platelet-derived growth factor receptor beta (Homo sapiens) (P09619 whole entry): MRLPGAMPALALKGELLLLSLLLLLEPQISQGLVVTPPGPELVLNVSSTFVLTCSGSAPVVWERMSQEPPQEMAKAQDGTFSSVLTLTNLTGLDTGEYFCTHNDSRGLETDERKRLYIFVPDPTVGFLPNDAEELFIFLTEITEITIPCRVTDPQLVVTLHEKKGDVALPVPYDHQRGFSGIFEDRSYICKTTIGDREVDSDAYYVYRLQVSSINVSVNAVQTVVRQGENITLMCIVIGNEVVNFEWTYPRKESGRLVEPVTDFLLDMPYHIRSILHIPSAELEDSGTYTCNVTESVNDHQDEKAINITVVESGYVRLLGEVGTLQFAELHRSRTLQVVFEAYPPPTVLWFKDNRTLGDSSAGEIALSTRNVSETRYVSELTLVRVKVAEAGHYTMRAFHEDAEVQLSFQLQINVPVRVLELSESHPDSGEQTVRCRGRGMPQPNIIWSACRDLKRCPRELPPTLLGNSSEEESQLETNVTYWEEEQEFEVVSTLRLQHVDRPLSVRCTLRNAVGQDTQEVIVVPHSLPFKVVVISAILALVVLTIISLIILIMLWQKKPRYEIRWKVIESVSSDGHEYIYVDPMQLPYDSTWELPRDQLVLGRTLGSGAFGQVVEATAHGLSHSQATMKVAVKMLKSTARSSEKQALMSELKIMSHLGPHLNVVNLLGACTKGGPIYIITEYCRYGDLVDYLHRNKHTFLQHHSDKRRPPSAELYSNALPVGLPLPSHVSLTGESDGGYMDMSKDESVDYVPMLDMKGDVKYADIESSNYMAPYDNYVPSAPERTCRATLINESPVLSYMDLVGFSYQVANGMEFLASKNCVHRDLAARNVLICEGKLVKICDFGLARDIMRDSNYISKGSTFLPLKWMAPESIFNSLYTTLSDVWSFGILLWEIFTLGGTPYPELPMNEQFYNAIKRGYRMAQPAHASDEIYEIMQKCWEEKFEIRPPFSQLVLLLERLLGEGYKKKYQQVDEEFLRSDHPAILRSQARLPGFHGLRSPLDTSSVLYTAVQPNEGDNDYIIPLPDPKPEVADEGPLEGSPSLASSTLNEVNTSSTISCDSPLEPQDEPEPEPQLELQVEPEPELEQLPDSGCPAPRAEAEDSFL
Sequence of Dual specificity protein kinase CLK3 (Homo sapiens) (P49761 whole entry, looked up): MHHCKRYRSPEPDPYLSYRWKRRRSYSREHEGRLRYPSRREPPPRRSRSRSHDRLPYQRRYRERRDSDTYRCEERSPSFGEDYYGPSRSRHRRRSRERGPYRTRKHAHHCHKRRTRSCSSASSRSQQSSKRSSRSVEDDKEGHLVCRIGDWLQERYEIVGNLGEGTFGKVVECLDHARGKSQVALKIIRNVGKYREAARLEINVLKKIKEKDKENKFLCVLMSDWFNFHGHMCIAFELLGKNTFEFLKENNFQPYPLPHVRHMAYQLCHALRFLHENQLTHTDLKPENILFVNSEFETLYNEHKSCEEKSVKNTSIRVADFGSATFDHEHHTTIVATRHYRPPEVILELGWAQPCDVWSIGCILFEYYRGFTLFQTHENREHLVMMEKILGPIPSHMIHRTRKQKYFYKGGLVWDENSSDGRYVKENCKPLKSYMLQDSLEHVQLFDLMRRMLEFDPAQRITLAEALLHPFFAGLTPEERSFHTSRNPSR
Sequence of Serine/threonine-protein kinase MRCK beta (Homo sapiens) (Q9Y5S2 whole entry): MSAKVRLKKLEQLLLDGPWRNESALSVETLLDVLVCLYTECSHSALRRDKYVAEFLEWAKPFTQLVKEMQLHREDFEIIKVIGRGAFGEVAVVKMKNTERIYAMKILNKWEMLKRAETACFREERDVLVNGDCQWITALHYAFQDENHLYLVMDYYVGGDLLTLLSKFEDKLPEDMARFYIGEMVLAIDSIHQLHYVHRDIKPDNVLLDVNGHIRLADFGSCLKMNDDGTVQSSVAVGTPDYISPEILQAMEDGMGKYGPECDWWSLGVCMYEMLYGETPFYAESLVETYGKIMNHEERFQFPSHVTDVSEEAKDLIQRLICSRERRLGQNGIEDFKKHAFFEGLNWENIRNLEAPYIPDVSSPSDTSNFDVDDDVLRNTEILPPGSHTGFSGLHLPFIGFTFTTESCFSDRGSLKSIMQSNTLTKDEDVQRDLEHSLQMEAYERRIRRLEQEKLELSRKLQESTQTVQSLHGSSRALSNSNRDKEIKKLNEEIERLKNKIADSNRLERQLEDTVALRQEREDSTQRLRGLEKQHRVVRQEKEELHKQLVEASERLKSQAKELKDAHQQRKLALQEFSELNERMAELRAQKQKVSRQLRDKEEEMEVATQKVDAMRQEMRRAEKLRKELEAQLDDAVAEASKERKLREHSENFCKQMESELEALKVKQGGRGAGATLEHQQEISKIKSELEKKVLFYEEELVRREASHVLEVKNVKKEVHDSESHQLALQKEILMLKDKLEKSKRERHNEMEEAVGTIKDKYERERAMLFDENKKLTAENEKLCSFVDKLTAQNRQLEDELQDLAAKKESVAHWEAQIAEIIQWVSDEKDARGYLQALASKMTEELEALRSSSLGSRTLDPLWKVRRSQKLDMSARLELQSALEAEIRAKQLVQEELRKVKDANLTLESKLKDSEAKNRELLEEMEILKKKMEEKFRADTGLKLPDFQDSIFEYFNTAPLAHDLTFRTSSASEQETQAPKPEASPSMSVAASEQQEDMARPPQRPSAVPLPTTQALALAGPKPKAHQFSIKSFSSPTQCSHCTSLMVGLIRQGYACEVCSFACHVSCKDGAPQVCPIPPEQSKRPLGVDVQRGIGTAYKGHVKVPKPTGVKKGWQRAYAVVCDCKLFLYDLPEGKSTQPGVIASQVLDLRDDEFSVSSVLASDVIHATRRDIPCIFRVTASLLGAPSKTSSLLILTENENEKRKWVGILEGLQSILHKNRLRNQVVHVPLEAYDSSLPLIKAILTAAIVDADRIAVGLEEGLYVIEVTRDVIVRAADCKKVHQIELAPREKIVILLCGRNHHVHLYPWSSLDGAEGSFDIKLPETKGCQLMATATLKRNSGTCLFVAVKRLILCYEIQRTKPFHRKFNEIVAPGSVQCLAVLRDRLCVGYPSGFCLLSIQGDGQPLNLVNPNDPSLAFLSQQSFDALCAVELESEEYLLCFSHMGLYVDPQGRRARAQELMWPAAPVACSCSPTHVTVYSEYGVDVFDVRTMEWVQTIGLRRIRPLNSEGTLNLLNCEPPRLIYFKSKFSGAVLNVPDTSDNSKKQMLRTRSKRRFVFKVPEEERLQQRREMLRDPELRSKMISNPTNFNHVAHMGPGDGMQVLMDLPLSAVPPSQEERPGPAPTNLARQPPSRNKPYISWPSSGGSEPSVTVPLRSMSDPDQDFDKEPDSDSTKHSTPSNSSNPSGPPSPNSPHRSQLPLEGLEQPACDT
Sequence of Inhibitor of nuclear factor kappa-B kinase subunit alpha (Homo sapiens) (O15111 whole entry): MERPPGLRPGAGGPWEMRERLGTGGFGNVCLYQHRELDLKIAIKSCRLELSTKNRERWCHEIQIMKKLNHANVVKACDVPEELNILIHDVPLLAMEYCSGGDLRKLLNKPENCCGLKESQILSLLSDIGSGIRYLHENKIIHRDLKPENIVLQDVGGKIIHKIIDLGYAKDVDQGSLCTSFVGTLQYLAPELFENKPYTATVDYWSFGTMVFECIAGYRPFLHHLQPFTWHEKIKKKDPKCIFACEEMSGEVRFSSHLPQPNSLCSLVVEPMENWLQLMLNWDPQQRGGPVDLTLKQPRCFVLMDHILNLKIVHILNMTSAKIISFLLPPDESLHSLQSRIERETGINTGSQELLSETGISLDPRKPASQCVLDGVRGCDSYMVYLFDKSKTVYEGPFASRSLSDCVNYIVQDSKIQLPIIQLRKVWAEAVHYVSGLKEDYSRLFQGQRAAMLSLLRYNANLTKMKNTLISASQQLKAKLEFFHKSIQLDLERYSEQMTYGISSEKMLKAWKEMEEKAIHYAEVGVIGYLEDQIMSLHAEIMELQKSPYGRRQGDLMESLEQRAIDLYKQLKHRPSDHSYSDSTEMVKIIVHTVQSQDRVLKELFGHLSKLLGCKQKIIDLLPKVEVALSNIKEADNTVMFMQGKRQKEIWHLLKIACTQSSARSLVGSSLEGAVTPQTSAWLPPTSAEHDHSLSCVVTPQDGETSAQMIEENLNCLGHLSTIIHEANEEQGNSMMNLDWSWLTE

Usually inhibition stands for the percentage by which the read-out fell short of the control. In the case of `CC(=O)N1CCC(c2ccc(C(=O)NC3=NCCN3)cc2C(F)(F)F)CC1` [BI 0054], the residual activity in assay [1] was 100%; in assay [2] it was 100%; in [3] it was 94%; in assay [4] it was 100%; in assay [5], 100%; in assay [6], 100%. For the same compound, the residual activity was 90% in assay [7]; 78% in assay [8]; 84% in assay [9]; 100% in assay [10]; 100% in assay [11]; 95% in assay [12]. In [13], the inhibition is 0.267%.

By IC50 is commonly meant the concentration needed to halve the response being measured. With `CC(=O)N1CCC(c2ccc(C(=O)NC(=N)N)cc2C(F)(F)F)CC1` [BI 9627], the residual activity is 98% in assay [14]; 105% in [15]; 99% in [16]; 74% in assay [17]; 102% in assay [18] (Compound concentration 0.03 uM); 108% in assay [18] (Compound concentration 0.1 uM). Further, the residual activity in [18] (Compound concentration 0.3 uM) was 71%; in assay [18] (Compound concentration 1.0 uM), 70%; in assay [18] (Compound concentration 3.0 uM), 48%; in [18] (Compound concentration 10.0 uM), 33%; in assay [18] (Compound concentration 30.0 uM), 11%; in assay [19] it was 100%. Also, the residual activity in assay [20] is 92%; in assay [1], 100%; in assay [2], 100%; in assay [3], 85%; in assay [4], 100%; in [5] it was 100%. Besides, the residual activity in assay [6], in assay [7], in [8], in [9], in assay [10] and in assay [11] was 100% in each case. Moreover, the figures for the residual activity in assay [12], in assay [21] and in assay [22] were 100%, 96% and 96%, respectively. In addition, the inhibition in [13] is 1.25%. In addition, in assay [23], the IC50 was 0.138 µM (active).
